Test results published in ChEMBL document CHEMBL5236634, “Membrane-Targeting Neolignan-Antimicrobial Peptide Mimic Conjugates to Combat Methicillin-Resistant Staphylococcus aureus (MRSA) Infections” (J Med Chem, 2022).
The source made the active and inactive calls. The rule behind the calls is not given here.

Experiments:
[1] = Toxicity in BALB/c mouse assessed as effect on albumin level at 50 mg/kg, ip administered as single dose and measured after 24 hrs; assay type: organism-based; conditions: in vivo
[2] = Toxicity in BALB/c mouse assessed as effect on hemoglobin level at 50 mg/kg, ip administered as single dose and measured after 24 hrs; assay type: organism-based; conditions: in vivo
Staphylococcus aureus [3] = experiment: Induction of drug resistance in Staphylococcus aureus ATCC 29213 assessed as increase in MIC at 0.5 times MIC measured for 20 days by CLSI based microdilution method; assay type: functional, organism-based; conditions: time 20.0 day
Staphylococcus aureus [4] = experiment: Inhibition of biofilm formation in methicillin-resistant Staphylococcus aureus 15 incubated for 24 hrs by crystalline violet staining based analysis; assay type: functional, organism-based; conditions: dose 0.125-64 µg/ml
Staphylococcus aureus [5] = experiment: Antibacterial activity against methicillin-resistant Staphylococcus aureus 15 infected in BALB/c mouse sepsis model assessed as normalization of cell morphology in liver at 10 mg/kg, ip measured after 48 hrs by H & E staining based analysis; assay type: functional, organism-based
Salmonella enterica [6] = experiment: Antibacterial activity against Salmonella enterica H9812 assessed as inhibition of bacterial growth incubated for 16 to 20 hrs by CLSI based microdilution method; assay type: functional; conditions: time 16-20 hrs
Staphylococcus aureus [7] = experiment: Antibacterial activity against methicillin-resistant Staphylococcus aureus 15 infected in BALB/c mouse sepsis model assessed as normalization of cell morphology in spleen at 10 mg/kg, ip measured after 48 hrs by H & E staining based analysis; assay type: functional, organism-based
Staphylococcus aureus [8] = experiment: Antibacterial activity against methicillin-resistant Staphylococcus aureus 15 infected in BALB/c mouse sepsis model assessed as reduction in bacterial load in kidney at 10 mg/kg, ip measured after 48 hrs; assay type: functional, organism-based
[9] = Toxicity in BALB/c mouse assessed as effect on urea level at 50 mg/kg, ip administered as single dose and measured after 24 hrs; assay type: organism-based; conditions: in vivo
Staphylococcus aureus [10] = experiment: Antibacterial activity against methicillin-resistant Staphylococcus aureus 15 infected in BALB/c mouse sepsis model assessed as survival rate at 20 mg/kg, ip administered for 7 days; assay type: functional; conditions: Staphylococcus aureus, 15, 168 h, time 7 day
Staphylococcus aureus [11] = experiment: Antibiofilm activity against methicillin-resistant Staphylococcus aureus 15 assessed as reduction in live bacteria in biofilm incubated for 24 hrs by crystal violet staining based analysis; assay type: functional, organism-based; conditions: dose 0-128 µg/ml
Staphylococcus aureus [12] = experiment: Bactericidal activity against Staphylococcus aureus ATCC 29213 at 4 to 8 times MIC measured for 24 hrs by time kill assay; assay type: functional, organism-based
[13] = Toxicity in BALB/c mouse assessed as survival rate at 10 to 50 mg/kg, ip administered as single dose and measured for 7 consecutive days; assay type: organism-based; conditions: in vivo, dose 10-50 mg/kg, time 7 day
[14] = Selectivity index, ratio of HC50 for hemolytic activity in sheep RBC to MIC for antibacterial activity against Staphylococcus aureus ATCC 29213; assay type: toxicity; conditions: sheep red blood cells
Salmonella enterica [15] = experiment: Antibacterial activity against Salmonella enterica 8389 assessed as inhibition of bacterial growth incubated for 16 to 20 hrs by CLSI based microdilution method; assay type: functional; conditions: time 16-20 hrs
Cell membrane [16] = experiment: Induction of cell membrane disruption in methicillin-resistant Staphylococcus aureus 15 assessed as DNA leakage at 1 to 6 times MIC incubated for 1 to 2 hrs by microspectrophotometer; assay type: subcellular; conditions: time 1-2 hrs
Staphylococcus aureus [17] = experiment: Antibacterial activity against methicillin-resistant Staphylococcus aureus 15 incubated for 16 to 18 hrs in presence of cardiolipin by checkerboard microdilution assay; assay type: functional, organism-based; conditions: time 16-18 hrs
[18] = Toxicity in BALB/c mouse assessed as pathological changes in kidney at 50 mg/kg, ip administered as single dose and measured after 24 hrs by H & E staining based analysis; assay type: organism-based; conditions: in vivo
Staphylococcus aureus [19] = experiment: Antibiofilm activity against Staphylococcus aureus ATCC 29213 assessed as reduction in live bacteria in biofilm incubated for 24 hrs by crystal violet staining based analysis; assay type: functional, organism-based; conditions: dose 0-128 µg/ml
Staphylococcus aureus [20] = experiment: Inhibition of biofilm formation in Staphylococcus aureus ATCC 29213 assessed as destruction of formed biofilm at 0 to 128 ug/ml incubated for 24 hrs by crystal violet staining based analysis; assay type: functional, organism-based; conditions: dose 0-128 µg/ml
[21] = Hemolytic activity in sheep RBC incubated for 1 hr by absorbance based analysis; assay type: toxicity, cell-based, Ovis aries, Erythrocyte; conditions: sheep red blood cells
Staphylococcus aureus [22] = experiment: Antibacterial activity against methicillin-resistant Staphylococcus aureus 15 infected in BALB/c mouse sepsis model assessed as normalization of cell morphology in kidney at 10 mg/kg, ip measured after 48 hrs by H & E staining based analysis; assay type: functional, organism-based
Cell membrane [23] = experiment: Disruption of membrane integrity in methicillin-resistant Staphylococcus aureus 15 assessed as increase in fluorescence intensity at 32 ug/ml measured immediately by Sytox green based fluorescence method; assay type: subcellular; conditions: dose 32.0 µg/ml
Staphylococcus aureus [24] = experiment: Inhibition of biofilm formation in Staphylococcus aureus ATCC 29213 incubated for 24 hrs by crystalline violet staining based analysis; assay type: functional, organism-based; conditions: dose 0.125-64 µg/ml
[25] = Stability in 50% plasma (unknown origin) assessed as change in MBC against methicillin-resistant Staphylococcus aureus 15 measured for 6 hrs; assay type: ADME, cell-free
Escherichia coli = experiment: Antibacterial activity against Escherichia coli ATCC 25922 assessed as inhibition of bacterial growth incubated for 16 to 20 hrs by CLSI based microdilution method; assay type: functional; conditions: time 16-20 hrs
Staphylococcus aureus [26] = experiment: Inhibition of biofilm formation in methicillin-resistant Staphylococcus aureus 15 assessed as destruction of formed biofilm at 128 ug/ml incubated for 24 hrs by crystal violet staining based analysis relative to control; assay type: functional
Staphylococcus aureus [27] = experiment: Inhibition of biofilm formation in Staphylococcus aureus ATCC 29213 at 64 ug/ml incubated for 24 hrs by crystalline violet staining based analysis; assay type: functional
Staphylococcus aureus [28] = experiment: Bactericidal activity against methicillin-resistant Staphylococcus aureus 15 at 4 to 8 times MIC measured after 3 hrs by time kill assay; assay type: functional
[29] = Toxicity in BALB/c mouse assessed as effect on WBC count at 50 mg/kg, ip administered as single dose and measured after 24 hrs; assay type: organism-based; conditions: in vivo
Staphylococcus aureus [30] = experiment: Antibacterial activity against methicillin-resistant Staphylococcus aureus 15 infected in BALB/c mouse sepsis model assessed as improvement in survival rate at 5 to 10 mg/kg, ip administered for 7 days; assay type: functional, organism-based; conditions: dose 5-10 mg/kg, time 7.0 day
Cell membrane [31] = experiment: Disruption of membrane integrity in methicillin-resistant Staphylococcus aureus 15 assessed as increase in red fluorescence at 16 ug/ml incubated for 1 hr by DAPI/PI staining based fluorescence microscopic analysis; assay type: subcellular; conditions: dose 16.0 µg/ml
Micrococcus luteus = experiment: Antibacterial activity against Micrococcus luteus assessed as inhibition of bacterial growth incubated for 16 to 20 hrs by CLSI based microdilution method; assay type: functional; conditions: time 16-20 hrs
[32] = Toxicity in BALB/c mouse assessed as effect on hematocrit level at 50 mg/kg, ip administered as single dose and measured after 24 hrs; assay type: organism-based; conditions: in vivo
Staphylococcus aureus [33] = experiment: Antibacterial activity against methicillin-resistant Staphylococcus aureus 15 infected in BALB/c mouse sepsis model assessed as reduction in inflammatory factors in organs at 10 mg/kg, ip measured after 48 hrs by H & E staining based analysis; assay type: functional, organism-based
[34] = Toxicity in BALB/c mouse assessed as effect on mean corpuscular volume at 50 mg/kg, ip administered as single dose and measured after 24 hrs; assay type: organism-based; conditions: in vivo
Staphylococcus aureus [35] = experiment: Antibacterial activity against methicillin-resistant Staphylococcus aureus 15 incubated for 16 to 18 hrs in presence of phosphatidylethanolamine by checkerboard microdilution assay; assay type: functional, organism-based; conditions: time 16-18 hrs

In the case of C=CCc1cccc(Oc2ccc(C(=O)CC)cc2)c1OCC[N+](C)(C)CC(=O)NCCCCCC.[Br-], the Activity [1] is reported as “Non-Toxic”, the Activity [2] is reported as “Non-Toxic” and the Activity (Staphylococcus aureus [3]) is reported as “inactive”. The inhibition (Staphylococcus aureus [4]) was “Dose-Dependent Effect”, the Activity (Staphylococcus aureus [5]) was “Active” and the MIC (Salmonella enterica [6]) was 64 µg/mL. For the same compound, the Activity (Staphylococcus aureus [7]) was “Active”, the Activity (Staphylococcus aureus [8]) was “Active” and the Activity [9] was “Non-Toxic”. The survival at 20 mg/kg (Staphylococcus aureus [10]) was 100%, the Activity (Staphylococcus aureus [11]) was “Active” and the Activity (Staphylococcus aureus [12]) was “Dose-Dependent Effect”. The survival at 168 h [13] was 100%, the selectivity ratio [14] was 556 and the MIC (Salmonella enterica [15]) was 64 µg/mL. For the same compound, the Activity (Cell membrane [16]) was “Active”, the Activity (Staphylococcus aureus [17]) was “inactive” and the Activity [18] was “Non-Toxic”. The Activity (Staphylococcus aureus [19]) was “Active”, the inhibition (Staphylococcus aureus [20]) was “Active” and the HC50 at 1 h [21] was 1110 µg/mL. The Activity (Staphylococcus aureus [22]) was “Active”, the Activity (Cell membrane [23]) was “Active” and the inhibition (Staphylococcus aureus [24]) was “Dose-Dependent Effect”. For the same compound, the Stability [25] was “Stable”, the MIC (Escherichia coli) was 8 µg/mL and the inhibition at 128 µg/mL (Staphylococcus aureus [26]) was > 80%. For the same compound, the inhibition at 64 µg/mL (Staphylococcus aureus [27]) was 100%, the Activity (Staphylococcus aureus [28]) was 100% and the Activity [29] was “Non-Toxic”. The Activity (Staphylococcus aureus [30]) was “Active”, the Activity (Cell membrane [31]) was “Active” and the MIC (Micrococcus luteus) was 4 µg/mL. For the same compound, the Activity [32] was “Non-Toxic”, the Activity (Staphylococcus aureus [33]) was “Active” and the Activity [34] was “Non-Toxic”. For the same compound, the Activity (Staphylococcus aureus [35]) was “Active”.

With C=CCc1cccc(Oc2ccc(C(=O)CC)cc2)c1OCCC[N+](C)(C)CC(=O)NCCCCCC.[Br-] the Activity [1] was “Non-Toxic”, the Activity [2] was “Non-Toxic” and the Activity (Staphylococcus aureus [3]) was “inactive”. For the same compound, the inhibition (Staphylococcus aureus [4]) was “Dose-Dependent Effect”, the Activity (Staphylococcus aureus [5]) was “Active” and the MIC (Salmonella enterica [6]) was 32 µg/mL. The Activity (Staphylococcus aureus [7]) was “Active”, the Activity (Staphylococcus aureus [8]) was “Active” and the Activity [9] was “Non-Toxic”. The survival at 20 mg/kg (Staphylococcus aureus [10]) was 100%, the Activity (Staphylococcus aureus [11]) was “Active” and the Activity (Staphylococcus aureus [12]) was “Dose-Dependent Effect”. It also gave a survival at 168 h [13] of 100%, a selectivity ratio [14] of 458 and an MIC (Salmonella enterica [15]) of 32 µg/mL. The Activity (Cell membrane [16]) was “Active”, the Activity (Staphylococcus aureus [17]) was “inactive” and the Activity [18] was “Non-Toxic”. For the same compound, the Activity (Staphylococcus aureus [19]) was “Active”, the inhibition (Staphylococcus aureus [20]) was “Active” and the HC50 at 1 h [21] was 916 µg/mL. For the same compound, the Activity (Staphylococcus aureus [22]) was “Active”, the Activity (Cell membrane [23]) was “Active” and the inhibition (Staphylococcus aureus [24]) was “Dose-Dependent Effect”. For the same compound, the Stability [25] was “Stable”, the MIC (Escherichia coli) was 16 µg/mL and the inhibition at 128 µg/mL (Staphylococcus aureus [26]) was > 80%. The inhibition at 64 µg/mL (Staphylococcus aureus [27]) was 100%, the Activity (Staphylococcus aureus [28]) was 100% and the Activity [29] was “Non-Toxic”. The Activity (Staphylococcus aureus [30]) was “Active”, the Activity (Cell membrane [31]) was “Active” and the MIC (Micrococcus luteus) was 1 µg/mL. The Activity [32] was “Non-Toxic”, the Activity (Staphylococcus aureus [33]) was “Active” and the Activity [34] was “Non-Toxic”. For the same compound, the Activity (Staphylococcus aureus [35]) was “Active”.
